Results as given in patent US20110081297A1, “Novel Substituted Pyrazoles, 1,2,4-Oxadiazoles, and 1,3,4-Oxadiazoles” (priority 2008, published 2011).

molecular target: human AD brain tissue homogenate (Homo sapiens, UniProt P05067); assay: Tissue homogenate binding assay (competition with [3H]-DMAB); conditions: human AD brain (frontal cortex) homogenate, 1.5 nM [3H]-DMAB radioligand, room temperature, 90 minutes
Description: PET radiotracer candidate compounds were then selected based on their high affinity competition with [^3H]-DMAB in binding to AD brain homogenates. These PET radiotracer candidate compounds were tested to determine if they were effective PgP substrates. Those PET radiotracer candidate compounds with little PgP substrate activity were radiolabeled with [^3H] or [^18F] and tested for binding affinity to human AD brain homogenates as well as binding to human non-AD brain homogenates and in autoradiographic studies using human AD and non-AD brain slices. Candidate radioligands were selected based on their strong binding affinity for human AD brain homogenates, and minimal binding to non-AD control homogenates. A low fraction of non-displaceable binding was also an important criterion. Minimization of white matter binding was an important criterion.
Postmortem frozen human brain samples from donors with clinical diagnosis of Alzheimer's diseases (AD) or normal control subjects (non-AD) were purchased from Analytical Biological Services Inc., at 701-4 Cornell Business Park, Wilmington, Del. 19801. Brain homogenates of frontal cortex were prepared, divided into aliquots and stored at −70° C. prior to use.
[^3H]-DMAB was synthesized at a specific activity of ˜80 Ci/mmol. The final concentration of radioligand for tissue homogenate binding assay was 1.5 nM. Brain homogenates were diluted with phosphate buffered saline (PBS) to 0.4 mg/mL from original 10 mg/mL volume and 200 μl was used in assay for a final concentration of […]. Unlabeled test compounds were dissolved in dimethylsulfoxide (DMSO) at 1 mM. Dilution of test compound to various concentrations was made with PBS containing 2% DMSO. Total binding was defined in the absence of competing compound, and non-displaceable binding was determined in the presence of 1 μM unlabeled self block. Compound dilutions (10×) were added into the assay tube (25 μL each/per tube, separately) containing 200 μL brain homogenate dilution, and the tubes were pre-incubated at room temperature for 10 minutes. Then radioligand dilutions (10×) were added into the assay tube (25 μl each/per tube, separately) to a final volume of 250 μL per tube. Incubation was carried out at room temperature (25° C.) for 90 minutes, and then the assay samples were filtered onto GF/C filters using Skatron 12 well harvester, washing on setting 5-5-5 (˜3×2 ml) ice cold buffer (PBS, pH 7.4). GF/C filter papers for the Skatron harvester were pre-soaked in 0.1% BSA for 1 hour at room temperature before use. Filters were punched into scintillation vials and counted in 2 mL Ultima Gold on Perkin Elmer Tri-Carb 2900TR for 1 minute. The data analysis was done with Prism software. […]

Chain of human AD brain tissue homogenate (P05067 whole entry): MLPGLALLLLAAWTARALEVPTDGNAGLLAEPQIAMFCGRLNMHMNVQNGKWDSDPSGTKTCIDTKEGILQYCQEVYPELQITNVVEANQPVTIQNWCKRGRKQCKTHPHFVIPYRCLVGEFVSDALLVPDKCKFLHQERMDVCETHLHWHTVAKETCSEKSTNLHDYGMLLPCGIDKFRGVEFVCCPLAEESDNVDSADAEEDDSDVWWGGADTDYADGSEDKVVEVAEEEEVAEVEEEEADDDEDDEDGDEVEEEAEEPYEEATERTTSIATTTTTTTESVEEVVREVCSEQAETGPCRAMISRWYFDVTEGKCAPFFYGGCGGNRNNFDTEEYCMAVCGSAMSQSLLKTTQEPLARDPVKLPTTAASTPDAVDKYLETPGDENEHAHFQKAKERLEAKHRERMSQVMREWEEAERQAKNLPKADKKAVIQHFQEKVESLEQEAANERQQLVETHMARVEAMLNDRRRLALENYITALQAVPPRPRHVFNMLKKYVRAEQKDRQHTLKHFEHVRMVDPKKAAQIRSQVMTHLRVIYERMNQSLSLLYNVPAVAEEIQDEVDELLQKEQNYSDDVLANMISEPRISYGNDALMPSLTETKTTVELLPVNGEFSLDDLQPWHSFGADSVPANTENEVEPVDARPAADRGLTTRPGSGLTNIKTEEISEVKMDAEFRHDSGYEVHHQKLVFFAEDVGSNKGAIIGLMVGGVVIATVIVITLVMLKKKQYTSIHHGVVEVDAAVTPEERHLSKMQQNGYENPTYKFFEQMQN

Row | Structure (SMILES) | IC50 [nM]
1 | COc1ccc(-c2noc(-c3cnc(F)c(C)c3)n2)cc1 | 77
2 | COc1ccc(-c2noc(-c3ccc4cc[nH]c4c3)n2)cc1 | 10
3 | COc1ccc(-c2cc(-c3ccc(N(C)C)cc3)n[nH]2)cc1 | 10
4 | CN(C)c1ccc(-c2cc(-c3cnc4[nH]ccc4c3)n[nH]2)cc1 | 50
